Our source for the IC50 values is patent publication US20260028365A1 (BIOGEN MA INC., priority 2022, published 2026).

Like-named read-outs stand apart in the source and are kept apart here.

Experiment [1] has as its target JH2 domain of human Tyk2 (Homo sapiens (Human), UniProt P29597). Briefly: JH2 Biochemical Assay (TR-FRET probe displacement). Format: binding. (TR-FRET usually uses a lanthanide donor and a delayed reading to cut background.)
Experiment [2] has as its target Tyk2 (Homo sapiens (Human), UniProt P29597). Briefly: pSTAT4 Cell Assay (MSD, NK92 cells). In kind it is cell-based.
The mark [3] stands for this setting: JH2 domain of human Tyk2, TR-FRET probe displacement.
[4] abbreviates: TR-FRET probe displacement, JH2 domain of human Tyk2.
[5] abbreviates: TR-FRET probe displacement, JH2 domain.

Sequence of JH2 domain of human Tyk2 (P29597 575-876): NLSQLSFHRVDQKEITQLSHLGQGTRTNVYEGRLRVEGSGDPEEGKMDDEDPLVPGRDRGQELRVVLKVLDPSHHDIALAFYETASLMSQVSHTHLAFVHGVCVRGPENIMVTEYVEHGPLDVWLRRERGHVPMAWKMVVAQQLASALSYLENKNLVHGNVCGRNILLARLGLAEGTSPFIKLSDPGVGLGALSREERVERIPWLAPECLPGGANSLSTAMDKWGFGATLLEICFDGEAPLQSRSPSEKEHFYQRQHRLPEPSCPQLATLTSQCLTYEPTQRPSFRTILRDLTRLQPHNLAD
Sequence of Tyk2 (P29597 whole entry, the tested form may be a part): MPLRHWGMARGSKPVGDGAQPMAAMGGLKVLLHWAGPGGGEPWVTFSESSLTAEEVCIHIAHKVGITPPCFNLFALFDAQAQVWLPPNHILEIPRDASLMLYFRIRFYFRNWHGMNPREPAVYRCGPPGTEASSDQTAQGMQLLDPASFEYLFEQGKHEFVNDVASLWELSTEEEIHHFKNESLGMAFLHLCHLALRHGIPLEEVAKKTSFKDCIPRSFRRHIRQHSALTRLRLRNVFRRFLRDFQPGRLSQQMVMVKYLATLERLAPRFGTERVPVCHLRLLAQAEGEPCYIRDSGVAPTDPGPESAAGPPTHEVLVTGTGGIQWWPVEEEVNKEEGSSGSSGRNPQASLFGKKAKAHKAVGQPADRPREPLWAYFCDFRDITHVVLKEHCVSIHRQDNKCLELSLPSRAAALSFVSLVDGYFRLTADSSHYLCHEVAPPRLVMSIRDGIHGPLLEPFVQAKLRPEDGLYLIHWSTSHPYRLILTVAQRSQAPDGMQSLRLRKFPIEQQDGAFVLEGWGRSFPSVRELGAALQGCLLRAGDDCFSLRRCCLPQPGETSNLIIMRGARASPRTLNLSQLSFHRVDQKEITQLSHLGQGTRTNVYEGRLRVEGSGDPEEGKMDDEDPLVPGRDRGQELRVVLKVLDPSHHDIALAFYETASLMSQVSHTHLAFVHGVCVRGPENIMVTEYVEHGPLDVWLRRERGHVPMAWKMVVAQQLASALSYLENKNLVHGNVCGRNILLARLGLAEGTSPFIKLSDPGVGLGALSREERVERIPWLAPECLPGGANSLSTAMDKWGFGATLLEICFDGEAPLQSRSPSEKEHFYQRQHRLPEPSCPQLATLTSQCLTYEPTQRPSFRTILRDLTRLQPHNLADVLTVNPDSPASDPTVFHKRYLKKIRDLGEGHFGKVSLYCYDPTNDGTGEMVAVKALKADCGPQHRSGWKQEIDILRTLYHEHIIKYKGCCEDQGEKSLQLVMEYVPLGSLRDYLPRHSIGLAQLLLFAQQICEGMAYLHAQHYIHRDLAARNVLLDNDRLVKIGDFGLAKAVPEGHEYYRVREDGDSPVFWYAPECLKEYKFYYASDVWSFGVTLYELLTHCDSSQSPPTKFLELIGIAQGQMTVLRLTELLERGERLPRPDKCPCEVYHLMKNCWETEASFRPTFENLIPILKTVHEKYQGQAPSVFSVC

With `CC(=O)Nc1cc(Nc2cc(C)nc(C(C)(F)F)n2)c(-c2ncc(F)c(C)n2)cn1` [Example 673, N-(4-((2-(1,1-difluoroethyl)-6-methylpyrimidin-4-yl)amino)-5-(5-fluorO4-methylpyrimidin-2-yl)pyridin-2-yl)acetamide], the concentration for half-maximal inhibition (IC50) in experiment [1] (setting [3]) and in experiment [2] (MSD) was 10 to 100 nM each time.
Regarding `CC(=O)Nc1cc(Nc2nccc(C(C)(F)F)n2)c(-c2ccn(C)n2)cn1` [Example 203, N-(4-((4-(1,1-difluoroethyl)pyrimidin-2-yl)amino)-5-(1-methyl-1H-pyrazol-3-yl)pyridin-2-yl)acetamide], the half-maximal inhibitory concentration (IC50) in experiment [1] (setting [4]) and in experiment [2] (MSD) was no more than 10 nM each time.
Regarding `CCc1cc(Nc2cc(NC(C)=O)ncc2OCCN2CCOCC2)nc(C(C)(F)F)n1` [Example 70, N-(4-((2-(1,1-difluoroethyl)-6-ethylpyrimidin-4-yl)amino)-5-(2-morpholinoethoxy)pyridin-2-yl)acetamide], the IC50 in experiment [1] (setting [4]) and in experiment [2] (MSD) was no more than 10 nM each time.
Consider `CCOc1cnc(NC(C)=O)cc1Nc1cc(-c2cncc(C)c2)nc(C(C)(F)F)n1` [Example 367, N-(4-((2-(1,1-difluoroethyl)-6-(5-methylpyridin-3-yl)pyrimidin-4-yl)amino)-5-ethoxypyridin-2-yl)acetamide], for which the half-inhibitory concentration (IC50) in experiment [1] (setting [4]) is no more than 10 nM; in experiment [2] (MSD), 10 to 100 nM.
As for `CC(=O)Nc1cc(Nc2cccc(C(C)(F)F)n2)c(-c2ncc(F)cn2)cn1` [Example 186, N-(4-((6-(1,1-difluoroethyl)pyridin-2-yl)amino)-5-(5-fluoropyrimidin-2-yl)pyridin-2-yl)acetamide], the results for the half-inhibitory concentration (IC50) in experiment [1] (setting [4]) and in experiment [2] (MSD) were no more than 10 nM and 10 to 100 nM, respectively.
Consider `CC(=O)Nc1cc(Nc2cc(C)nc(C(C)(F)F)n2)c(-c2cccc(C(C)(C)C#N)n2)cn1` [Example 654, N-(6-(2-cyanopropan-2-yl)-4′-((2-(1,1-difluoroethyl)-6-methylpyrimidin-4-yl)amino)-[2,3′-bipyridin]-6′-yl)acetamide], for which the IC50 in experiment [1] (setting [3]) and in experiment [2] (MSD) was no more than 10 nM each time.
In the case of `CC(=O)Nc1cc(Nc2cc(C)nc(C(C)(F)F)n2)c(OCc2ccn(C)n2)cn1` [Example 475, N-(4-((2-(1,1-difluoroethyl)-6-methylpyrimidin-4-yl)amino)-5-((1-methyl-1H-pyrazol-3-yl)methoxy)pyridin-2-yl)acetamide], the concentration for half-maximal inhibition (IC50) was no more than 10 nM in experiment [1] (setting [3]) and 10 to 100 nM in experiment [2] (MSD).
For the compound `CCOCCOc1cnc(NC(C)=O)cc1Nc1cc(C)nc(C(C)(F)F)n1` [Example 507, N-(4-((2-(1,1-difluoroethyl)-6-methylpyrimidin-4-yl)amino)-5-(2-ethoxyethoxy)pyridin-2-yl)acetamide], the IC50 in experiment [1] (setting [3]) and in experiment [2] (MSD) was no more than 10 nM each time.
On to `CC(=O)Nc1cc(Nc2cc(C)nc(C(C)(F)F)n2)c(OC[C@H]2C[C@H]2CF)cn1` (racemic) [Example 428, Cis-rac-N-(4-((2-(1,1-difluoroethyl)-6-methylpyrimidin-4-yl)amino)-5-((2-(fluoromethyl)cyclopropyl)methoxy)pyridin-2-yl)acetamide], for which the 50% inhibitory concentration (IC50) in experiment [1] (setting [3]) is no more than 10 nM; in experiment [2] (MSD) it was 10 to 100 nM.
Take `CC(=O)Nc1cc(Nc2cc(C)nc(C(C)(F)F)n2)c(-c2ncc(C(F)F)cn2)cn1` [Example 670, N-(4-((2-(1,1-difluoroethyl)-6-methylpyrimidin-4-yl)amino)-5-(5-(difluoromethyl)pyrimidin-2-yl)pyridin-2-yl)acetamide]: the half-inhibitory concentration (IC50) in experiment [1] (setting [3]) was no more than 10 nM; in experiment [2] (MSD) it was 10 to 100 nM.
On to `COc1cc(-c2cnc(NC(C)=O)cc2Nc2cc(C)nc(C34COC(C3)C4)n2)ncn1` [Example 750, N-(4-((2-(2-oxabicyclo[2.1.1]hexan-4-yl)-6-methylpyrimidin-4-yl)amino)-5-(6-methoxypyrimidin-4-yl)pyridin-2-yl)acetamide], for which the IC50 in experiment [1] (setting [5]) was no more than 10 nM; in experiment [2], 100 to 1000 nM.
For the compound `CCOc1cnc(NC(=O)CC)cc1Nc1cc(C)nc(C(C)(F)F)n1` [Example 9, N-(4-((2-(1,1-difluoroethyl)-6-methylpyrimidin-4-yl)amino)-5-ethoxypyridin-2-yl)propionamide], the IC50 in experiment [1] (setting [4]) was no more than 10 nM; in experiment [2] (MSD) it was 10 to 100 nM.
For `CC(=O)Nc1cc(Nc2ccnc(C(C)(F)F)n2)c(-c2ncn(C)n2)cn1` [Example 165, N-(4-((2-(1,1-difluoroethyl)pyrimidin-4-yl)amino)-5-(1-methyl-1H-1,2,4-triazol-3-yl)pyridin-2-yl)acetamide] the same measures were 10 to 100 nM and 100 to 1000 nM.
For the compound `COCCc1cc(-c2cnc(NC(C)=O)cc2Nc2cc(C)nc(C(C)(F)F)n2)ncn1` [Example 745, N-(4-((2-(1,1-difluoroethyl)-6-methylpyrimidin-4-yl)amino)-5-(6-(2-methoxyethyl)pyrimidin-4-yl)pyridin-2-yl)acetamide], the values for the IC50 in experiment [1] (setting [3]) and in experiment [2] (MSD) were no more than 10 nM and 10 to 100 nM, respectively.
On to `CC(=O)Nc1cc(Nc2cc(C)nc(C34COC(C3)C4)n2)c(-c2cc3n(n2)CC(F)(F)C3)cn1` [Example 564, N-(4-((2-(2-oxabicyclo[2.1.1]hexan-4-yl)-6-methylpyrimidin-4-yl)amino)-5-(5,5-difluorO5,6-dihydrO4H-pyrrolo[1,2-b]pyrazol-2-yl)pyridin-2-yl)acetamide], for which the IC50 in experiment [1] (setting [3]) and in experiment [2] (MSD) was no more than 10 nM throughout.
For the compound `CC(=O)Nc1cc(Nc2cc(C)nc(C(C)(F)F)n2)c(OCc2ccc(F)c(F)c2)cn1` [Example 467, N-(5-((3,4-difluorobenzyl)oxy)-4-((2-(1,1-difluoroethyl)-6-methylpyrimidin-4-yl)amino)pyridin-2-yl)acetamide], the half-inhibitory concentration (IC50) in experiment [1] (setting [3]) was no more than 10 nM; in experiment [2] (MSD), 10 to 100 nM.
`CC(=O)Nc1cc(Nc2cc(OC3CC3)nc(C(C)(F)F)n2)c(-c2cnccn2)cn1` [Example 824, N-(4-((6-cyclopropoxy-2-(1,1-difluoroethyl)pyrimidin-4-yl)amino)-5-(pyrazin-2-yl)pyridin-2-yl)acetamide]: the half-maximal inhibitory concentration (IC50) in experiment [1] (setting [5]) was no more than 10 nM; in experiment [2] it was 10 to 100 nM.
Turning to `CC(=O)Nc1cc(Nc2cc(C)nc(C(C)(F)F)n2)c(-c2cc3n(n2)CCN(C)C3=O)cn1` [Example 541, N-(4-((2-(1,1-difluoroethyl)-6-methylpyrimidin-4-yl)amino)-5-(5-methyl-4-oxO4,5,6,7-tetrahydropyrazolo[1,5-a]pyrazin-2-yl)pyridin-2-yl)acetamide], the 50% inhibitory concentration (IC50) is no more than 10 nM in experiment [1] (setting [3]) and 10 to 100 nM in experiment [2] (MSD).
As for `CC(=O)Nc1cc(Nc2cc(C)nc(C(C)(F)F)n2)c(-c2cc(N(C)C)ncn2)cn1` [Example 247, N-(4-((2-(1,1-difluoroethyl)-6-methylpyrimidin-4-yl)amino)-5-(6-(dimethylamino)pyrimidin-4-yl)pyridin-2-yl)acetamide], the IC50 in experiment [1] (setting [4]) was no more than 10 nM; in experiment [2] (MSD), no less than 1000 nM.
For `COCn1ncc(-c2cnc(NC(C)=O)cc2Nc2ccnc(C(C)(F)F)n2)n1` [Example 711, N-(4-((2-(1,1-difluoroethyl)pyrimidin-4-yl)amino)-5-(2-(methoxymethyl)-2H-1,2,3-triazol-4-yl)pyridin-2-yl)acetamide], the half-inhibitory concentration (IC50) in experiment [1] (setting [3]) was no more than 10 nM; in experiment [2] (MSD) it was 10 to 100 nM.
Consider `CC(=O)Nc1cc(Nc2cc(C(C)C)nc(C(C)(F)F)n2)c(F)cn1` [Example 817, N-(4-((2-(1,1-difluoroethyl)-6-isopropylpyrimidin-4-yl)amino)-5-fluoropyridin-2-yl)acetamide], for which the results for the IC50 in experiment [1] (setting [5]) and in experiment [2] were 10 to 100 nM and no less than 1000 nM, respectively.
As to `COc1cc(-c2cnc(NC(C)=O)cc2Nc2cccc(C(C)(F)F)n2)ncn1` [Example 162, N-(4-((6-(1,1-difluoroethyl)pyridin-2-yl)amino)-5-(6-methoxypyrimidin-4-yl)pyridin-2-yl)acetamide], the IC50 in experiment [1] (setting [4]) and in experiment [2] (MSD) was no more than 10 nM each time.
As for `COc1ccnc(Nc2cc(NC(C)=O)ncc2-c2ccn(C)n2)n1` [Example 553, N-(4-((4-methoxypyrimidin-2-yl)amino)-5-(1-methyl-1H-pyrazol-3-yl)pyridin-2-yl)acetamide], the figures for the IC50 in experiment [1] (setting [3]) and in experiment [2] (MSD) were 10 to 100 nM and 100 to 1000 nM, respectively.
In the case of `COc1nn(C)cc1COc1cnc(NC(C)=O)cc1Nc1cc(C)nc(C(C)(F)F)n1` [Example 512, N-(4-((2-(1,1-difluoroethyl)-6-methylpyrimidin-4-yl)amino)-5-((3-methoxy-1-methyl-1H-pyrazol-4-yl)methoxy)pyridin-2-yl)acetamide], the IC50 in experiment [1] (setting [3]) and in experiment [2] (MSD) was 100 to 1000 nM in each case.
With `CC(=O)Nc1cc(Nc2ccnc(C(C)(F)F)n2)c(-c2ccc(CN3CCOC[C@H]3C)cn2)cn1` [Example 880, (R)-N-(4′-((2-(1,1-difluoroethyl)pyrimidin-4-yl)amino)-5-((3-methylmorpholino)methyl)-[2,3′-bipyridin]-6′-yl)acetamide], the half-inhibitory concentration (IC50) in experiment [1] (setting [5]) and in experiment [2] was no more than 10 nM in each case.
In the case of `CC(=O)Nc1cc(Nc2ccnc(C(C)(F)F)n2)c(-c2csc(N3CC4(COC4)C3)n2)cn1` [Example 789, N-(5-(2-(2-oxa-6-azaspiro[3.3]heptan-6-yl)thiazol-4-yl)-4-((2-(1,1-difluoroethyl)pyrimidin-4-yl)amino)pyridin-2-yl)acetamide], the IC50 in experiment [1] (setting [5]) and in experiment [2] was no more than 10 nM throughout.
Turning to `CC(=O)Nc1cc(Nc2cc(C)nc(C(C)(F)F)n2)c(OCC2COCC3(CCC3)O2)cn1` (centres unmarked) [Example 443, N-(5-((5,8-dioxaspiro[3.5]nonan-6-yl)methoxy)-4-((2-(1,1-difluoroethyl)-6-methylpyrimidin-4-yl)amino)pyridin-2-yl)acetamide], the IC50 in experiment [1] (setting [3]) was no more than 10 nM; in experiment [2] (MSD) it was 10 to 100 nM.
For `COc1cnc(NC(C)=O)cc1Nc1cc(-c2cncc(C)c2)nc(C(C)(F)F)n1` [Example 389, N-(4-((2-(1,1-difluoroethyl)-6-(5-methylpyridin-3-yl)pyrimidin-4-yl)amino)-5-methoxypyridin-2-yl)acetamide] the same measures were no more than 10 nM and 10 to 100 nM.

The term IC50 denotes the concentration that inhibits the measured activity by half.
